Measurements published in patent US20250009751A1, “FORMULATIONS OF ANTIVIRAL COMPOUNDS” (Merck Sharp & Dohme LLC, priority 2018, published 2025).

Test: pH-dependent solubility of Compound A
Format: physicochemical
Conditions: particularly between pH 1-4

COC(=O)N[C@H](C(=O)N1CCC[C@H]1c1ncc(-c2cc(F)c3c(c2)O[C@@H](c2cnc(C4CC4)s2)n2c-3cc3cc(-c4cnc([C@@H]5CCCN5C(=O)[C@@H](NC(=O)OC)C(C)C)[nH]4)ccc32)[nH]1)C(C)C [Compound A, dimethyl ((2S,2′S)-((2S,2′S)-2,2′-(5,5′-((S)-6-(2-cyclopropylthiazol-5-yl)-1-fluoro-6H-benzo[5,6][1,3]oxazino[3,4-a]indole-3,10-diyl)bis(1H-imidazole-5,2-diyl))bis(pyrrolidine-2,1-diyl))bis(3-methyl-1-oxobutane-2,1-diyl))dicarbamate]
solubility profile: sharp pH-dependent solubility profile
